Among the test systems are HT29 colon; OVCAR-4 ovarian; OVCAR-8 ovarian; SN12C renal; UACC-257 melanoma; UO-31 renal.
Common to all, as to experiment: NCI tumour cell line growth inhibition, 48 h

Molecules are shown by their SMILES.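 Following 48 hours of exposure in 96-well plates, responses at five concentrations were used to interpolate endpoints linearly. TGI: total growth inhibition.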 Where only a bound is given, the exact number is not on record here.

With `CCCCCCCC(=O)OCC1OC(n2cc(F)c(=O)[nH]c2=O)C(N)C(OC(=O)CCCCCCC)C1O` (stereo not drawn), the TGI came out at 33.4 µM in the test on HT29 colon; 29 µM in the test on OVCAR-4 ovarian; 31.6 µM in the test on OVCAR-8 ovarian; 32.5 µM in the test with SN12C renal; 33.4 µM in the test on UACC-257 melanoma; 36.6 µM in the test with UO-31 renal.

In the case of `COc1cc(OC)c(OC)cc1/C=N/NC(=O)N/N=C/c1cc(OC)c(OC)cc1OC`, the TGI in the test with HT29 colon, in the test with OVCAR-4 ovarian, in the test with OVCAR-8 ovarian, in the test on SN12C renal, in the test with UACC-257 melanoma and with UO-31 renal was > 100 µM each time.

With `O=C1C/C(Br)=C\c2ccccc2-c2ccccc21`, the TGI in the test on HT29 colon was 4.72 µM; in the test with OVCAR-4 ovarian, 7.88 µM; in the test with OVCAR-8 ovarian, 5.41 µM; with SN12C renal, 4.8 µM; in the test on UACC-257 melanoma, 14.5 µM; in the test on UO-31 renal it was 6.87 µM.

In the case of `O/N=C1\CCCCC1C(NO)c1ccccc1` (stereo not drawn), the TGI with HT29 colon, in the test on OVCAR-4 ovarian, in the test on OVCAR-8 ovarian, in the test with SN12C renal, in the test on UACC-257 melanoma and in the test on UO-31 renal was > 100 µM in each case.

As to `CCC(C)(C)n1c(C)nc2c1C(=O)c1ccccc1C2=O`, the TGI with HT29 colon was > 100 µM; in the test with OVCAR-4 ovarian, > 100 µM; in the test with OVCAR-8 ovarian it was > 100 µM; with SN12C renal it was > 100 µM; in the test on UACC-257 melanoma, 84.4 µM; in the test on UO-31 renal, 90.7 µM.

Consider `CCOc1ccc(OCC(=O)O)c2c1CCCC2=O`, for which the TGI with HT29 colon, in the test with OVCAR-4 ovarian, in the test with OVCAR-8 ovarian, in the test with SN12C renal, in the test with UACC-257 melanoma and with UO-31 renal was > 100 µM throughout.

As to `C[N+](C)(C)CC(=O)N/N=C(/Cc1cc(=O)oc2cc(O)ccc12)C(=O)Nc1ccc(Cl)cc1`, the TGI with HT29 colon, with OVCAR-4 ovarian, with OVCAR-8 ovarian, in the test on SN12C renal, with UACC-257 melanoma and in the test on UO-31 renal was > 100 µM each time.

In the case of `COc1ccc(NC(=O)CSc2nnc(-c3ccc(NC(C)=O)cc3)o2)cc1`, the TGI in the test with HT29 colon was 25.2 µM; in the test on OVCAR-4 ovarian, 30.3 µM; in the test on OVCAR-8 ovarian, 36.6 µM; in the test with SN12C renal, 41.9 µM; with UACC-257 melanoma, 41.7 µM; in the test with UO-31 renal it was 33 µM.

On to `O=Cc1cc2c(cc1-c1cc3c(cc1C=O)OCO3)OCO2`, for which the TGI in the test with HT29 colon, in the test on OVCAR-4 ovarian, in the test on OVCAR-8 ovarian, in the test with SN12C renal, in the test on UACC-257 melanoma and with UO-31 renal was > 100 µM in each case.

Turning to `CC(=O)N/C(=C\c1ccccc1/C=C(\NC(C)=O)c1nc2cc(C)c(C)cc2[nH]1)c1nc2cc(C)c(C)cc2[nH]1`, the TGI with HT29 colon is > 100 µM; with OVCAR-8 ovarian, 40.9 µM; with SN12C renal, 35.3 µM; with UO-31 renal it was 12.5 µM.

For `O=C1C=C(c2c(O)ccc3ccccc23)c2cc(O)ccc2C1=O`, the TGI in the test with HT29 colon was determined as 47.9 µM; in the test on OVCAR-4 ovarian it was 26.1 µM; with OVCAR-8 ovarian, 28.9 µM; in the test on SN12C renal, 32.4 µM; in the test with UACC-257 melanoma, 33.1 µM; in the test with UO-31 renal it was 36.5 µM.

With `C/C(=N\NC(N)=O)c1sc(-c2nc(C)c(/C(C)=N/NC(N)=O)s2)nc1C`, the TGI with HT29 colon, in the test on OVCAR-4 ovarian, in the test on OVCAR-8 ovarian, with SN12C renal, in the test with UACC-257 melanoma and with UO-31 renal was > 100 µM each time.

Consider `c1ccc2c(c1)CCc1c(-c3ccncc3)n[nH]c1-2`, for which the TGI was > 100 µM with HT29 colon, 88.6 µM in the test on OVCAR-8 ovarian, > 100 µM in the test on SN12C renal and 57.7 µM with UACC-257 melanoma.

Turning to `CCCN(CCC)c1c([N+](=O)[O-])cc(C(=O)N(CC)CC)cc1[N+](=O)[O-]`, the TGI was > 100 µM in the test with HT29 colon; 69 µM in the test on OVCAR-8 ovarian; > 100 µM in the test with SN12C renal; 43.3 µM in the test on UACC-257 melanoma; 63.1 µM in the test with UO-31 renal.

In the case of `CCOC(=O)C(Br)=C1OC(=O)c2ccccc2-c2ccccc21` (mixture of isomers), the TGI with HT29 colon was 29.5 µM; in the test on OVCAR-8 ovarian it was 75.8 µM; in the test on SN12C renal it was 56.4 µM; with UACC-257 melanoma it was 48 µM; with UO-31 renal, > 100 µM.

`COCOCCC#CCO`: the TGI in the test on HT29 colon, with OVCAR-8 ovarian, in the test on SN12C renal, in the test on UACC-257 melanoma and in the test on UO-31 renal was > 100 µM each time.

As for `FC(F)(F)c1ccc2nc(NCc3ccccc3)c(-c3ccccc3)nc2c1`, the TGI was > 100 µM with HT29 colon; > 100 µM with OVCAR-8 ovarian; > 100 µM with SN12C renal; > 100 µM with UACC-257 melanoma; 92.9 µM in the test with UO-31 renal.

On to `O=c1[nH]c(=O)n(C2CC(O)C(CO)O2)cc1OS(=O)(=O)C(F)(F)F` (stereo not drawn), for which the TGI with HT29 colon, in the test with OVCAR-4 ovarian, in the test on OVCAR-8 ovarian and in the test on SN12C renal was > 100 µM each time.

Values taken from PubChem BioAssay (NCI).
